Laboratory results from ChEMBL document CHEMBL1201862, “PubChem BioAssay data set” (2004).
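Values below derive from 48-hour exposures of cells grown in 96-well plates, with endpoints linearly interpolated between the two concentrations bracketing the appropriate inhibition level. Abbreviation: GI50, concentration required for 50% inhibition of growth.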 The source made the active and inactive calls. Cut-off read from the data, not from the text of the source: active = GI50 up to about 1.1 µM and inactive = higher.

What was measured:
Assay in all cases: NCI tumour cell line growth inhibition, 48 h
UACC-257 = system: UACC-257
UACC-62 = system: UACC-62
LXFL 529 = system: LXFL 529
OVCAR-8 = system: OVCAR-8
KM-20L2 = system: KM-20L2
SF-268 = system: SF-268
HCC 2998 = system: HCC 2998
LOX IMVI = system: LOX IMVI
HCT-15 = system: HCT-15
RXF 631 = system: RXF 631
HT-29 = system: HT-29
HOP-18 = system: HOP-18
CAKI-1 = system: CAKI-1
HCT-116 = system: HCT-116
SNB-75 = system: SNB-75
HL-60 = system: HL-60
A549 = system: A549
K562 = system: K562
HOP-92 = system: HOP-92
SK-MEL-2 = system: SK-MEL-2
RPMI-8226 = system: RPMI-8226
SK-MEL-28 = system: SK-MEL-28
DLD-1 = system: DLD-1
OVCAR-4 = system: OVCAR-4
ACHN = system: ACHN
OVCAR-3 = system: OVCAR-3
IGROV-1 = system: IGROV-1
CCRF-CEM = system: CCRF-CEM
UO-31 = system: UO-31
NCI-H23 = system: NCI-H23
SNB-78 = system: SNB-78
786-0 = system: 786-0
SK-OV-3 = system: SK-OV-3
A498 = system: A498
M19-MEL = system: M19-MEL
COLO 205 = system: COLO 205
Malme-3M = system: Malme-3M
KM12 = system: KM12
SR = system: SR
RXF 393 = system: RXF 393
NCI-H226 = system: NCI-H226
HOP-62 = system: HOP-62
M14 = system: M14
OVCAR-5 = system: OVCAR-5
SW-620 = system: SW-620
DMS-273 = system: DMS-273
SN12C = system: SN12C
TK-10 = system: TK-10
NCI-H522 = system: NCI-H522
SF-539 = system: SF-539
SF-295 = system: SF-295
MOLT-4 = system: MOLT-4
SNB-19 = system: SNB-19
U-251 = system: U-251
SK-MEL-5 = system: SK-MEL-5
DMS-114 = system: DMS-114
NCI-H460 = system: NCI-H460
EKVX = system: EKVX
XF498 = system: XF498

Measured: GI50

N#CC(/C(=N/NC(=O)C(=O)NN)C(=O)NC12CC3CC(CC(C3)C1)C2)c1ccccc1 (centres undefined)
inactive: UACC-257 > 100 µM | UACC-62 > 100 µM | LXFL 529 > 100 µM | OVCAR-8 > 100 µM | KM-20L2 > 100 µM | SF-268 > 100 µM | HCC 2998 > 100 µM | LOX IMVI > 100 µM | RXF 631 > 100 µM | HT-29 > 100 µM | HOP-18 > 100 µM | CAKI-1 > 100 µM | HCT-116 > 100 µM | SNB-75 > 100 µM | HL-60 > 100 µM | A549 > 100 µM | K562 > 100 µM | HOP-92 > 100 µM | SK-MEL-2 > 100 µM | RPMI-8226 > 100 µM | SK-MEL-28 > 100 µM | DLD-1 > 100 µM | OVCAR-4 > 100 µM | ACHN > 100 µM | OVCAR-3 > 100 µM | IGROV-1 > 100 µM | CCRF-CEM > 100 µM | UO-31 > 100 µM | NCI-H23 > 100 µM | SNB-78 > 100 µM | 786-0 > 100 µM | SK-OV-3 > 100 µM | A498 > 100 µM | M19-MEL > 100 µM | COLO 205 > 100 µM | Malme-3M > 100 µM | KM12 > 100 µM | SR > 100 µM | RXF 393 > 100 µM | NCI-H226 > 100 µM | HOP-62 > 100 µM | M14 > 100 µM | OVCAR-5 > 100 µM | SW-620 > 100 µM | DMS-273 > 100 µM | SN12C > 100 µM | TK-10 > 100 µM | NCI-H522 > 100 µM | SF-539 > 100 µM | SF-295 > 100 µM | MOLT-4 > 100 µM | SNB-19 > 100 µM | U-251 > 100 µM | SK-MEL-5 > 100 µM | DMS-114 > 100 µM | NCI-H460 > 100 µM | EKVX > 100 µM
> 100 µM: HCT-15

CN/N=C(\C)C(CN1CCCCC1)C(C1=C(O)c2ccccc2OC1)c1ccccc1 (centres undefined)
inactive: UACC-257 > 100 µM | UACC-62 48 µM | LXFL 529 > 100 µM | OVCAR-8 > 100 µM | KM-20L2 > 100 µM | SF-268 > 100 µM | HCC 2998 > 100 µM | LOX IMVI > 100 µM | RXF 631 > 100 µM | HT-29 > 100 µM | CAKI-1 > 100 µM | HCT-116 > 100 µM | SNB-75 > 100 µM | HL-60 35.2 µM | A549 > 100 µM | K562 > 100 µM | SK-MEL-2 > 100 µM | RPMI-8226 44.3 µM | SK-MEL-28 > 100 µM | OVCAR-4 > 100 µM | ACHN > 100 µM | OVCAR-3 > 100 µM | IGROV-1 78.3 µM | CCRF-CEM 69.2 µM | UO-31 50.4 µM | NCI-H23 > 100 µM | SNB-78 > 100 µM | 786-0 > 100 µM | SK-OV-3 > 100 µM | A498 > 10 µM | M19-MEL > 100 µM | COLO 205 38.4 µM | Malme-3M 91.8 µM | KM12 > 100 µM | SR 51.3 µM | RXF 393 > 100 µM | NCI-H226 > 100 µM | HOP-62 > 100 µM | M14 > 100 µM | OVCAR-5 > 100 µM | SW-620 > 100 µM | DMS-273 > 100 µM | SN12C > 100 µM | XF498 > 100 µM | TK-10 > 100 µM | NCI-H522 > 100 µM | SF-539 > 100 µM | SF-295 82 µM | MOLT-4 39.4 µM | SNB-19 > 100 µM | U-251 91.2 µM | SK-MEL-5 > 100 µM | DMS-114 79.3 µM | NCI-H460 > 100 µM | EKVX > 100 µM
> 100 µM: HCT-15
